Series [1] can be described thus: Chemical stability assessed as half life of hydrolysis in acidic buffer at pH 5.4. The series is classed as physicochemical.
The nature of series [2]: Chemical stability assessed as half life of hydrolysis in alkaline buffer at pH 8.3. The series is classed as physicochemical.
Series [3] is described as follows: Chemical stability assessed as half life of hydrolysis in physiological solution at pH 7.6. The series is classed as physicochemical.
In series [4] the test system is Periplaneta americana. Kind of series: Activity at nAch receptor in american cockroach neurons assessed as induction of inward current at 10 uM by whole-cell patch clamp method.
The subject of series [5] is Periplaneta americana. The series is described as follows: Insecticidal activity against american cockroach after 24 hrs. The series is classed as functional.

Active and inactive are the calls of the source. No cut-off for these calls is given here.

As a reminder, the half-life is how long it takes for the measured level to halve. For the compound `Cc1oc(=O)oc1CN1CCN(Cc2ccc(Cl)nc2)/C1=N\[N+](=O)[O-]`, the half-life is greater than 48 h in series [1], 15.5 h in series [2] and 11.6 h in series [3]. The outcome in the series on Periplaneta americana [4] was Active. For the same compound, in the series with Periplaneta americana [5], the MLD is reported as 6.4 10^-8mol.

As to `Cc1oc(=O)oc1CN1CCN(Cc2cnc(Cl)s2)/C1=N\[N+](=O)[O-]`, the half-life is greater than 48 h in series [1], 10.6 h in series [2] and 10.5 h in series [3]. Also, the result with Periplaneta americana [4] was Active. The MLD in the series with Periplaneta americana [5] is 6.4 10^-8mol.

The record behind these values is ChEMBL document CHEMBL1149571, “Proinsecticide candidates N-(5-methyl-2-oxo-1,3-dioxol-4-yl)methyl derivatives of imidacloprid and 1-chlorothiazolylmethyl-2-nitroimino-imidazolidine” (Bioorg Med Chem Lett, 2007).
